{
  "source": "patent US11845774B2",
  "about": "“Sterol derivatives and preparation method and uses thereof” (BEIJING PEKING UNIVERSITY WBL BIOTECH CO., LTD., priority 2011, dated 2023)",
  "key": {"[1]": {"test_system": "mice sarcoma cell line S180", "assay": "MTT test of inhibiting cancer cells, S180", "type": "cell-based", "settings": "72 hours, FIG. 4, concentration-effect relationship", "protocol": "(§1) Cancer cells of exponential growth phase were inoculated on 96-well plate, 2×10^4 cells/well, added with drug until final drug concentrations were: 500, 250, 125, 62.5, 31.25, 15.625 and 7.8125 μg/mL, cultured at 37° C. in 5% CO2 cell culture incubator for 72 hours, then added with MTT, 10 μL/well, incubated in dark at 37° C. for 4 hours, culture medium was removed, 150 μL of DMSO or acidified isopropanol was added, vibrated for 5 minutes, and then OD values were measured under wavelength of 570 nm. This was repeated for 3 times, and a blank control was set. These cell strains used the same culture medium, i.e., RPMI1640 culture medium containing 10% fetal bovine serum and 1% double antibody (penicillin and steptomycin).\n(§2) Calculation Formula: Cell survival rate=(OD value of test group/OD value of control group)×100%."}, "[2]": {"test_system": "mice hepatoma cell line H22", "assay": "MTT test of inhibiting cancer cells, H22", "type": "cell-based", "settings": "Mus musculus, 72 hours, FIG. 2, read-out: IC50 value, growth of H22", "protocol": "as §1, §2"}, "[3]": {"test_system": "human tissue lymphoma cell U937", "assay": "MTT test of inhibiting cancer cells, U937", "type": "cell-based", "settings": "U-937, 72 hours, FIG. 7, read-out: IC50 value, growth of U937", "protocol": "as §1, §2"}, "mice lymphoma cell YAC-1": {"test_system": "mice lymphoma cell YAC-1", "assay": "MTT test of inhibiting cancer cells, YAC-1", "type": "cell-based", "settings": "Mus musculus, 72 hours, FIG. 5, read-out: IC50 value, growth of YAC-1", "protocol": "as §1, §2"}, "[4]": {"biological_target": "T1, HMG-CoA reductase (rat liver microsomes) (Rattus norvegicus, UniProt P51639)", "T1 construct": "taking out liver of male rat, washing with KESD buffer solution; from tissue; host or cells: liver of male rat (microsomal fraction, glycerol/37 °C treatment, 35-50% ammonium sulfate fraction)", "T1 sequence (P51639 1-887)": "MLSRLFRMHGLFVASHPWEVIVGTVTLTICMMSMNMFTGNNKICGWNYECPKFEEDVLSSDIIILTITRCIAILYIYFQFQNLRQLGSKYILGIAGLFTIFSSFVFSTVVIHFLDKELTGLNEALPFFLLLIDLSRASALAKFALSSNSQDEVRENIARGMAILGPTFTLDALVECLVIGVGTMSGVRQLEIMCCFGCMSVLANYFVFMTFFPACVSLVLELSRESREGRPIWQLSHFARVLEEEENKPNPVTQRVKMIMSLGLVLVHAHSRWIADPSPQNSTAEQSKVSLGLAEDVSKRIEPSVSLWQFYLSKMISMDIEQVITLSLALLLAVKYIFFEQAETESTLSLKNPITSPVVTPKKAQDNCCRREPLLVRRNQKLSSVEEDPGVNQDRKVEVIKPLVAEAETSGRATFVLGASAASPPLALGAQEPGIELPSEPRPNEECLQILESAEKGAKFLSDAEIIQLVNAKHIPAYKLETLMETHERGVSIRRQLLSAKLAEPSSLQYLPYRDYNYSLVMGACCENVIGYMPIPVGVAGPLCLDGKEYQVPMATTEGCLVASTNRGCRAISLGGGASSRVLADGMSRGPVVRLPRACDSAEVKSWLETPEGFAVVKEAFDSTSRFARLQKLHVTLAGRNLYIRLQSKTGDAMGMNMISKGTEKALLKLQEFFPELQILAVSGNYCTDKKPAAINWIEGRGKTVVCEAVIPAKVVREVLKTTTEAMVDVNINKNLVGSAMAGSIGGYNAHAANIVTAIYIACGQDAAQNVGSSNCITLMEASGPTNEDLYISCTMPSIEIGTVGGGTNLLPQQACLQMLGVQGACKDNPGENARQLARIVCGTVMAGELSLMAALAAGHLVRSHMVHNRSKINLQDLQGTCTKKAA", "assay": "Test of activity of inhibiting HMG-CoA reductase (rate of decline of OD340)", "type": "biochemical", "settings": "for Slope (rate of decline of OD340): blank control slope 16.0", "protocol": "Rat liver microsomes (HMG-CoA reductase), could be commercially available or prepared by the following preparation method: taking out liver of male rat, washing with KESD buffer solution, centrifuging under 1200 g for 15 minutes, collecting supernatant, then centrifuging under 105,000 g twice, 90 minutes for each time, and collecting centrifugation deposit. The centrifugation deposit was added with 8.3% of glycerol, heated with 37° C. bath for 1 hour. The crude product of rat liver microsomes was purified with saturated ammonium sulfate, and 35-50% of purified fraction was collected. The purified fraction obtained could be stored in −80° C. refrigerator.\nCompound of Formula II was dissolved in 75% ethanol solution, with initial concentration of 8.0 mg/mL, and diluted in gradient manner, to reach 4.0 mg/mL, 2.0 mg/mL, 1.0 mg/mL; lovastatin was used as positive control, dissolved with 75% ethanol solution to reach concentration of 2.0 mg/mL; in the test system, total volume was 250 μL, concentrations of ingredients were separately: potassium chloride 200 mM, potassium dihydrogen phosphate 160 mM, ethylenediamine tetraacetic acid 4 mM, dithiothreitol 10 mM, […] and 3-hydroxy-3-methylglutary coenzyme A as two substrates separately had concentrations of: 200 μM and 50 μM, pH6.8, 30 μL of enzyme was added, 4 test groups were separately added with 10 μL of new compound solutions with different concentrations, the positive control group was added with 10 μL of lovastatin solution, the blank control group was added with 10 μL of 75% ethanol solution, and dynamitic changes of OD340 were detected with Versamax ELISA at 37° C. condition. The rate of decline of OD340 (expressed in slope value) as detected within 5 minutes was used to evaluate the activity of HMG-CoA reductase, and then to evaluate the activity of enzyme inhibitor and the results were shown in Table 2."}, "[5]": {"test_system": "human mononuclear lymphoma cell THP1", "assay": "MTT test of inhibiting cancer cells, THP1", "type": "cell-based", "settings": "THP-1, 72 hours, FIG. 6, read-out: IC50 value, growth of THP1", "protocol": "as §1, §2"}, "[6]": {"test_system": "human colon cancer cell strain HCT116", "assay": "MTT test of inhibiting cancer cells, HCT116", "type": "cell-based", "settings": "72 hours, FIG. 1, concentration-effect relationship", "protocol": "as §1, §2"}, "HepG2 cells": {"test_system": "HepG2 cells", "assay": "MTT test of inhibiting cancer cells, HepG2", "type": "cell-based", "settings": "Homo sapiens, 72 hours, FIG. 3, read-out: IC50 value, growth of human hepatoma cell line", "protocol": "as §1, §2"}, "[7]": {"test_system": "mice melanoma cell B16-F10", "assay": "MTT test of inhibiting cancer cells, B16-F10", "type": "cell-based", "settings": "Mus musculus, 72 hours, FIG. 8, read-out: IC50 value, growth of B16-F10", "protocol": "as §1, §2"}, "[8]": {"settings": "final concentration in system 40 μg/mL"}, "[9]": {"settings": "final concentration in system 80 μg/mL"}, "[10]": {"settings": "final concentration in system 160 μg/mL"}, "[11]": {"settings": "final concentration in system 320 μg/mL"}},
  "data": [
    {"compound": "C[C@@H](C(O)C1OC2C[C@H]3C4=CC=C5CC(O)CC[C@]5(C)[C@H]4CC[C@]3(C)[C@H]2[C@@]1(C)O)C(C)(C)O", "note": "(some centres unmarked) [Compound of Formula II, 16,22-epoxy-ergosta-5,7-dien-3,20,23,25-tetraol]", "values": [
      {"measurement": "inhibition effect on growth of S180 (in words)", "setting": "[1]", "value": "inhibition effect"},
      {"measurement": "IC50", "setting": "[2]", "value": "~50", "unit": "µg/mL"},
      {"measurement": "IC50", "setting": "[3]", "value": "~50", "unit": "µg/mL"},
      {"measurement": "IC50", "setting": "mice lymphoma cell YAC-1", "value": "~62.5", "unit": "µg/mL"},
      {"measurement": "Inhibition rate", "setting": "[4]; [8]", "value": 14.4, "unit": "%"},
      {"measurement": "Slope (rate of decline of OD340)", "setting": "[4]; [8]", "value": 13.7},
      {"measurement": "Inhibition rate", "setting": "[4]; [9]", "value": 29.4, "unit": "%"},
      {"measurement": "Slope (rate of decline of OD340)", "setting": "[4]; [9]", "value": 11.3},
      {"measurement": "Inhibition rate", "setting": "[4]; [10]", "value": 45.6, "unit": "%"},
      {"measurement": "Slope (rate of decline of OD340)", "setting": "[4]; [10]", "value": 8.7},
      {"measurement": "Inhibition rate", "setting": "[4]; [11]", "value": 53.1, "unit": "%"},
      {"measurement": "Slope (rate of decline of OD340)", "setting": "[4]; [11]", "value": 7.5},
      {"measurement": "IC50", "setting": "[4]; read-out: IC50 value, inhibition of activity of HMG-CoA reductase (converted)", "value": "~543", "unit": "µM"},
      {"measurement": "IC50", "setting": "[5]", "value": "~250", "unit": "µg/mL"},
      {"measurement": "inhibition effect on growth of HCT116 (in words)", "setting": "[6]", "value": "inhibition effect"},
      {"measurement": "IC50", "setting": "HepG2 cells", "value": "~200", "unit": "µg/mL"},
      {"measurement": "IC50", "setting": "[7]", "value": "~62.5", "unit": "µg/mL"}
    ]}
  ]
}
